{
  "source": "patent US20110159504A1",
  "about": "“METHYLATION MARKERS FOR SENSITIVITY TO MICROTUBE BASED THERAPIES AND METHODS OF USE” (THE JOHNS HOPKINS UNIVERSITY, priority 2008, published 2011)",
  "key": {"[1]": {"test_system": "CHFR expression in esophageal cancer cell lines", "assay": "CHFR expression by RT-PCR in esophageal cancer cell lines after treatment with demethylating agent", "format": "cell-based", "settings": "for Expression of CHFR (RNA level, RT-PCR) in CHFR-methylated cell lines: KYSE150 and KYSE510, no expression at baseline, 72 hour treatment", "excerpt": "A) Methylation-specific PCR (MSP) of the CHFR promoter region was examined in esophageal cancer cell lines. […] B) Expression of CHFR as determined by RT-PCR. […] C) Position of MSP primers and molecular beacon in the promoter region of the CHFR gene. A previously described gel-based MSP assay for detection of CHFR methylation in colorectal cancer was used 20."}, "[2]": {"test_system": "advanced localized esophageal cancer", "assay": "Response (pCR) and overall survival of esophageal cancer patients after neoadjuvant chemoradiotherapy and surgery, by CHFR methylation status", "format": "in vivo, human", "settings": "for Overall survival when CHFR methylation present vs. absent: paclitaxel n=31, docetaxel n=18, Kaplan-Meier; for Overall survival, docetaxel vs. paclitaxel: taxane-based therapy, N=49", "procedure": "Endoscopic tumor biopsy specimens were studied from 81 patients with advanced localized esophageal cancer scheduled to undergo neoadjuvant chemoradiotherapy and surgery at the Johns Hopkins Hospital (JHH) between January 1995 and January 2007. Forty-nine patients were treated with taxane based combination chemoradiotherapy. Pretreatment esophageal tumor tissue from endoscsopic biopsy was initially available from JHH for twenty-one patients treated with taxanes. After an analysis of these initial 21 patients, IRB permission was obtained to request further biopsy specimens from referring endoscopy centers for patients subsequently treated at Johns Hopkins Hospital. This allowed analysis of pretreatment endoscopic tumor biopsies from an additional 28 patients treated with taxanes and 32 patients treated with non-taxane regimens. […] Of the forty-nine taxane-treated patients, thirty-one received paclitaxel containing combinations, while eighteen received a docetaxel-based combination shown in the Table below.\nResponse to preoperative chemoradiotherapy was based on pathology of the resected esophagus and nodal tissue specimen and classified as either pathologic complete response (pCR) or non-pCR, where pCR is the complete absence of intact tumor cells in surgical pathology specimens. We verified histological results and deaths during follow-up by re-examining original hospital records. This study was approved by the Johns Hopkins Institutional Review Board.\nMethylation of CHFR was determined by detecting analyte (CHFR and ACTS) with real-time MSP using molecular beacons. These consisted of parallel amplification/quantification using specific primer and detector pairs for each analyte using the iCycler (BioRad Laboratories, Hercules, Calif.). […] Duplicate PCR amplifications were analyzed using iQuant 3.0 software (BioRad), exported as Ct values, and used to calculate copy numbers based on a linear regression of values plotted on a standard curve of 20-2×10^6 gene copy equivalents of plasmid DNA containing bisulfite modified CHFR. CHFR copy numbers were divided by ACTB copy numbers for each sample to normalize for DNA quality and quantity, multiplied by 100 for convenience to determine the ratio-value. […]\nBased upon findings from the initial 21 patients treated with taxanes and 40% methylation prevalence, the study size necessary to detect a hazard ratio of death of 3.00 for unmethylated CHFR was estimated. […] The primary endpoint was time to death or censor measured from the origin date of pretreatment endoscopic biopsy. […] Associations between clinical response and CHFR methylation were assessed using logistic regression. […] Statistical comparisons and survival between groups were analyzed using the log-rank test. […]"}},
  "note": "“Also recorded” adds a separate entry of the source.",
  "data": [
    {"smiles": "Nc1ncn([C@H]2C[C@H](O)[C@@H](CO)O2)c(=O)n1", "note": "[5-aza-2′-deoxycytidine]", "values": [
      {"measurement": "Expression of CHFR (RNA level, RT-PCR) in CHFR-methylated cell lines", "setting": "[1]", "result": "re-express the gene at the RNA level"},
      {"measurement": "Expression of CHFR (RNA level, RT-PCR) in CHFR-methylated cell lines", "setting": "[1]; listed as 5-aza-2′ deoxycytidine", "result": "reversed"},
      {"measurement": "Expression of CHFR (RT-PCR) in unmethylated cell lines", "setting": "[1]; all other (unmethylated) esophageal cancer cell lines, express CHFR at baseline", "result": "not affected"}
    ]},
    {"smiles": "CC(=O)O[C@H]1C(=O)[C@@]2(C)[C@H]([C@H](OC(=O)c3ccccc3)[C@]3(O)C[C@H](OC(=O)[C@H](O)[C@@H](NC(=O)c4ccccc4)c4ccccc4)C(C)=C1C3(C)C)[C@]1(OC(C)=O)CO[C@@H]1C[C@@H]2O", "note": "[paclitaxel]", "values": [
      {"measurement": "Overall survival when CHFR methylation present vs. absent", "setting": "[2]", "result": "survival advantage; also recorded: significantly greater"},
      {"measurement": "Overall survival, docetaxel vs. paclitaxel", "setting": "[2]", "result": "no difference"}
    ]},
    {"smiles": "CC(=O)O[C@@]12CO[C@@H]1C[C@H](O)[C@@]1(C)C(=O)[C@H](O)C3=C(C)[C@@H](OC(=O)[C@H](O)[C@@H](NC(=O)OC(C)(C)C)c4ccccc4)C[C@@](O)([C@@H](OC(=O)c4ccccc4)[C@H]21)C3(C)C", "note": "[docetaxel]", "values": [
      {"measurement": "Overall survival when CHFR methylation present vs. absent", "setting": "[2]", "result": "survival advantage; also recorded: improvement in survival"},
      {"measurement": "Overall survival, docetaxel vs. paclitaxel", "setting": "[2]", "result": "no difference"}
    ]}
  ]
}
